Consider 32 molecules from US11802111B2, “Cyclobutyl amide monoacylglycerol lipase modulators” (Janssen Pharmaceutica NV, priority 2020, dated 2023).

Broadly, the IC50 is the concentration that gives 50% inhibition. High values mean a need for much substance, low ones inhibition by little substance.

In the test the target is human MGL from HeLa cells (Homo sapiens (Human), UniProt Q99685). The test can be described thus: MGL in vitro activity assay ([glycerol-1,3-3H]-oleoyl glycerol hydrolysis, activated carbon filtration). Format: biochemical. The note with it: 300 nM [Glycerol-1,3-3H]-oleoyl glycerol, one hour. The gist of the method: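 Activity measured as tritium in the flow-through after activated carbon filtration of a 1 h reaction containing 300 nM 3H-oleoyl glycerol, compound and HeLa-derived human MGL. Compounds screened at 10 μM; IC50 series start at an empirically chosen highest concentration.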
Chain of human MGL from HeLa cells (Q99685 whole entry): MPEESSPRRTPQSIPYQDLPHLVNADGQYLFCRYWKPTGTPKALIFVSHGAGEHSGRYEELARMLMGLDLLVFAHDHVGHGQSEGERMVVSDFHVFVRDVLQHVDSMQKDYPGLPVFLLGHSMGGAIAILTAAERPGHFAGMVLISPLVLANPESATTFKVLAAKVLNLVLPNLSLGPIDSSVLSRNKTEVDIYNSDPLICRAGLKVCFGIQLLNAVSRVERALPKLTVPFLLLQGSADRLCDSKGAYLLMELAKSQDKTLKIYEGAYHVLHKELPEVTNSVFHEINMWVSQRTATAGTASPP
`Cc1cc(CC2CC3(C2)CN(C(=O)[C@H]2C[C@@](C)(O)C2)C3)ccc1C(F)(F)F` [Example 212, ((1s,3s)-3-Hydroxy-3-methylcyclobutyl)(6-(3-methyl-4-(trifluoromethyl)benzyl)-2-azaspiro[3.3]heptan-2-yl)methanone] came in with an IC50 of 0.3 nM. This counts as sub-nanomolar.

As for `Cc1ccc(CC2CC3(C2)CN(C(=O)[C@H]2C[C@@](C)(O)C2)C3)c(C(F)(F)F)c1` [Example 213, ((1s,3s)-3-Hydroxy-3-methylcyclobutyl)(6-(4-methyl-2-(trifluoromethyl)benzyl)-2-azaspiro[3.3]heptan-2-yl)methanone], inhibition was half-maximal at 4.1 nM (IC50). With `Cn1nc(C(F)(F)F)cc1CC1CC2(C1)CN(C(=O)[C@H]1C[C@@](C)(O)C1)C2` [Example 214, ((1s,3s)-3-Hydroxy-3-methylcyclobutyl)(6-((1-methyl-3-(trifluoromethyl)-1H-pyrazol-5-yl)methyl)-2-azaspiro[3.3]heptan-2-yl)methanone] the figure was 417 nM; with `Cn1ncc2ccc(CC3CC4(C3)CN(C(=O)[C@H]3C[C@@](C)(O)C3)C4)cc21` [Example 215, ((1s,3s)-3-Hydroxy-3-methylcyclobutyl)(6-((1-methyl-1H-indazol-6-yl)methyl)-2-azaspiro[3.3]heptan-2-yl)methanone], 43 nM. Regarding `COc1ccccc1CC1CC2(C1)CN(C(=O)[C@H]1C[C@@](C)(O)C1)C2` [Example 216, ((1s,3s)-3-Hydroxy-3-methylcyclobutyl)(6-(2-methoxybenzyl)-2-azaspiro[3.3]heptan-2-yl)methanone], half-maximal inhibition (IC50) was put at 12 nM. Consider `COc1ccc(CC2CC3(C2)CN(C(=O)[C@H]2C[C@@](C)(O)C2)C3)c(C(F)(F)F)c1` [Example 217, ((1s,3s)-3-Hydroxy-3-methylcyclobutyl)(6-(4-methoxy-2-(trifluoromethyl)benzyl)-2-azaspiro[3.3]heptan-2-yl)methanone], for which the IC50 worked out at 3.5 nM. With `C[C@]1(O)C[C@@H](C(=O)N2CC3(CC(Cc4cccc(C5CC5)c4)C3)C2)C1` [Example 218, (6-(3-Cyclopropylbenzyl)-2-azaspiro[3.3]heptan-2-yl)((1s,3s)-3-hydroxy-3-methylcyclobutyl)methanone] the figure was 6.3 nM; with `C[C@]1(O)C[C@@H](C(=O)N2CC3(CC(Cc4ccc(C5CC5)cc4)C3)C2)C1` [Example 219, (6-(4-Cyclopropylbenzyl)-2-azaspiro[3.3]heptan-2-yl)((1s,3s)-3-hydroxy-3-methylcyclobutyl)methanone], 1.2 nM; with `C[C@]1(O)C[C@@H](C(=O)N2CC3(CC(Cc4ccc(OC(F)(F)F)cc4)C3)C2)C1` [Example 220, ((1s,3s)-3-Hydroxy-3-methylcyclobutyl)(6-(4-(trifluoromethoxy)benzyl)-2-azaspiro[3.3]heptan-2-yl)methanone], 1.1 nM.

In turn, `C[C@]1(O)C[C@@H](C(=O)N2CC3(CC(Cc4ccc(OC(F)F)cc4)C3)C2)C1` [Example 221, (6-(4-(Difluoromethoxy)benzyl)-2-azaspiro[3.3]heptan-2-yl)((1s,3s)-3-hydroxy-3-methylcyclobutyl)methanone] came in with an IC50 of 5.1 nM. Compared with the last molecule, the IC50 is about 4.6-fold higher. `CCc1cccc(CC2CC3(C2)CN(C(=O)[C@H]2C[C@@](C)(O)C2)C3)c1` [Example 222, (6-(3-Ethylbenzyl)-2-azaspiro[3.3]heptan-2-yl)((1s,3s)-3-hydroxy-3-methylcyclobutyl)methanone]: inhibition was half-maximal at 5.1 nM (IC50). In other words, the single-digit nanomolar range. With `C[C@]1(O)C[C@@H](C(=O)N2CC3(CC(Cc4cccc(C(F)(F)F)n4)C3)C2)C1` [Example 223, ((1s,3s)-3-Hydroxy-3-methylcyclobutyl)(6-((6-(trifluoromethyl)pyridin-2-yl)methyl)-2-azaspiro[3.3]heptan-2-yl)methanone] the figure was 169 nM; with `Cn1ccc2ccc(CC3CC4(C3)CN(C(=O)[C@H]3C[C@@](C)(O)C3)C4)nc21` [Example 224, ((1s,3s)-3-Hydroxy-3-methylcyclobutyl)(6-((1-methyl-1H-pyrrolo[2,3-b]pyridin-6-yl)methyl)-2-azaspiro[3.3]heptan-2-yl)methanone], 27 nM. Take `Cn1cc(CC2CC3(C2)CN(C(=O)[C@H]2C[C@@](C)(O)C2)C3)c(C(F)(F)F)n1` [Example 225, ((1s,3s)-3-Hydroxy-3-methylcyclobutyl)(6-((1-methyl-3-(trifluoromethyl)-1H-pyrazol-4-yl)methyl)-2-azaspiro[3.3]heptan-2-yl)methanone]: half-maximal inhibition (IC50) required 119 nM. Molecule `Cc1cccc(C(F)(F)F)c1CC1CC2(C1)CN(C(=O)[C@H]1C[C@@](C)(O)C1)C2` [Example 226, ((1s,3s)-3-Hydroxy-3-methylcyclobutyl)(6-(2-methyl-6-(trifluoromethyl)benzyl)-2-azaspiro[3.3]heptan-2-yl)methanone] yielded an IC50 of 2.1 nM. For the molecule `Cc1c(F)cccc1CC1CC2(C1)CN(C(=O)[C@H]1C[C@@](C)(O)C1)C2` [Example 227, (6-(3-Fluoro-2-methylbenzyl)-2-azaspiro[3.3]heptan-2-yl)((1s,3s)-3-hydroxy-3-methylcyclobutyl)methanone], the midpoint of inhibition, the IC50, lay at 20 nM. In turn, `Cc1cc(CC2CC3(C2)CN(C(=O)[C@H]2C[C@@](C)(O)C2)C3)ccc1F` [Example 228, (6-(4-Fluoro-3-methylbenzyl)-2-azaspiro[3.3]heptan-2-yl)((1s,3s)-3-hydroxy-3-methylcyclobutyl)methanone] showed an IC50 of 15 nM. Molecule `Cc1ccc(CC2CC3(C2)CN(C(=O)[C@H]2C[C@@](C)(O)C2)C3)cc1F` [Example 229, (6-(3-Fluoro-4-methylbenzyl)-2-azaspiro[3.3]heptan-2-yl)((1s,3s)-3-hydroxy-3-methylcyclobutyl)methanone] had an IC50 of 12 nM.

On to `Cc1ccc(CC2CC3(C2)CN(C(=O)[C@H]2C[C@@](C)(O)C2)C3)c(F)c1` [Example 230, (6-(2-Fluoro-4-methylbenzyl)-2-azaspiro[3.3]heptan-2-yl)((1s,3s)-3-hydroxy-3-methylcyclobutyl)methanone], for which the IC50 is 6.4 nM. This IC50 lies about 1.9-fold lower than the previous one.

`C[C@]1(O)C[C@@H](C(=O)N2CC3(CC(Cc4cccc(C(F)F)c4)C3)C2)C1` [Example 231, (6-(3-(Difluoromethyl)benzyl)-2-azaspiro[3.3]heptan-2-yl)((1s,3s)-3-hydroxy-3-methylcyclobutyl)methanone] gave an IC50 of 14 nM. With `C[C@]1(O)C[C@@H](C(=O)N2CC3(CC(Cc4ccc(C(F)F)cc4)C3)C2)C1` [Example 232, (6-(4-(Difluoromethyl)benzyl)-2-azaspiro[3.3]heptan-2-yl)((1s,3s)-3-hydroxy-3-methylcyclobutyl)methanone], the IC50 was 11 nM. This IC50 and that of the molecule before are within 1.5-fold of each other. With `CC(C)(C)c1cccc(CC2CC3(C2)CN(C(=O)[C@H]2C[C@@](C)(O)C2)C3)n1` [Example 233, (6-((6-(tert-Butyl)pyridin-2-yl)methyl)-2-azaspiro[3.3]heptan-2-yl)((1s,3s)-3-hydroxy-3-methylcyclobutyl)methanone], the IC50 turned out to be 273 nM. The molecule `C[C@]1(O)C[C@@H](C(=O)N2CC3(CCC(Cc4ccccc4)CC3)C2)C1` [Example 235, (7-Benzyl-2-azaspiro[3.5]nonan-2-yl)((1s,3s)-3-hydroxy-3-methylcyclobutyl)methanone] displayed an IC50 of 40 nM. This IC50 lies about 6.8-fold lower than the previous one. Take `Cc1ccccc1CC1CCC2(CC1)CN(C(=O)[C@H]1C[C@@](C)(O)C1)C2` [Example 236, ((1s,3s)-3-Hydroxy-3-methylcyclobutyl)(7-(2-methylbenzyl)-2-azaspiro[3.5]nonan-2-yl)methanone]: half-maximal inhibition (IC50) required 49 nM.

`C[C@]1(O)C[C@@H](C(=O)N2CC3(CC(Cn4ccc(C(F)(F)F)n4)C3)C2)C1` [Example 237, ((1s,3s)-3-Hydroxy-3-methylcyclobutyl)(6-((3-(trifluoromethyl)-1H-pyrazol-1-yl)methyl)-2-azaspiro[3.3]heptan-2-yl)methanone]: inhibition was half-maximal at 840 nM (IC50). Molecule `Cc1ccccc1OC1CC2(C1)CN(C(=O)[C@H]1C[C@@](C)(O)C1)C2` [Example 238, ((1s,3s)-3-Hydroxy-3-methylcyclobutyl)(6-(o-tolyloxy)-2-azaspiro[3.3]heptan-2-yl)methanone] yielded an IC50 of 541 nM. The result for `Cc1cc(OC2CCC3(CC2)CN(C(=O)[C@H]2C[C@@](C)(O)C2)C3)ccc1C(F)(F)F` [Example 239, ((1s,3s)-3-Hydroxy-3-methylcyclobutyl)(7-(3-methyl-4-(trifluoromethyl)phenoxy)-2-azaspiro[3.5]nonan-2-yl)methanone] reads 0.4 nM. The molecule `CC(C)c1cccc(OC2CCC3(CC2)CN(C(=O)[C@H]2C[C@@](C)(O)C2)C3)c1` [Example 241, ((1s,3s)-3-Hydroxy-3-methylcyclobutyl)(7-(3-isopropylphenoxy)-2-azaspiro[3.5]nonan-2-yl)methanone] yielded an IC50 of 27 nM. In turn, `CC(C)c1ccc(OC2CCC3(CC2)CN(C(=O)[C@H]2C[C@@](C)(O)C2)C3)cc1` [Example 242, ((1s,3s)-3-Hydroxy-3-methylcyclobutyl)(7-(4-isopropylphenoxy)-2-azaspiro[3.5]nonan-2-yl)methanone] displayed an IC50 of 6.3 nM. `CC(C)(C)c1cccc(OC2CC3(C2)CN(C(=O)[C@H]2C[C@@](C)(O)C2)C3)c1` [Example 244, (6-(3-(tert-Butyl)phenoxy)-2-azaspiro[3.3]heptan-2-yl)((1s,3s)-3-hydroxy-3-methylcyclobutyl)methanone] had an IC50 of 63 nM. `Cc1ccc(OC2CC3(CCN(C(=O)[C@H]4C[C@@](C)(O)C4)CC3)C2)cc1` [Example 245, ((1s,3s)-3-Hydroxy-3-methylcyclobutyl)(2-(p-tolyloxy)-7-azaspiro[3.5]nonan-7-yl)methanone] had an IC50 of 329 nM.

Turning to `CC(C)(C)c1ccc(OC2CC3(C2)CN(C(=O)[C@H]2C[C@@](C)(O)C2)C3)cc1` [Example 246, (6-(4-(tert-Butyl)phenoxy)-2-azaspiro[3.3]heptan-2-yl)((1s,3s)-3-hydroxy-3-methylcyclobutyl)methanone], the IC50 turned out to be 84 nM.
